Experiments:
[1] = test system: Human immunodeficiency virus 1; test: Antiviral activity against X4 tropic HIV1 NL4.3 infected in CD4 and CXCR4 expressing human MT4 cells assessed as inhibition of viral cytopathicity; type: functional, organism-based; conditions: Human immunodeficiency virus 1, NL4.3, MT4
[2] = Cytotoxicity against human MT4 cells expressing CD4 and CXCR4 assessed as cell viability; type: cell-based
[3] = AUC (0 to infinity) in dog; type: ADME, organism-based, Canis lupus familiaris; set-up: time infinity; concentration or dose not given beside the values; conditions: plasma
[4] = AUC (0 to infinity) in rat; type: ADME, organism-based; set-up: time infinity; concentration or dose not given beside the values; conditions: plasma
[5] = Cmax in dog; type: ADME, organism-based, Canis lupus familiaris; conditions: in vivo
[6] = Cmax in rat; type: ADME, organism-based; conditions: in vivo
[7] = test system: Human immunodeficiency virus 1; test: Antiviral activity against X4 tropic HIV1 NL4.3 infected in human PBMC assessed as inhibition of viral cytopathicity in presence of 1 mg/ml of alpha-acid glycoprotein; type: functional
[8] = test system: Human immunodeficiency virus 1; test: Antiviral activity against X4 tropic HIV1 NL4.3 infected in human PBMC assessed as inhibition of viral cytopathicity; type: functional, organism-based; conditions: Human immunodeficiency virus 1, NL4.3
[9] = target: T1, C-X-C chemokine receptor type 4 (Homo sapiens, UniProt P61073); test: Displacement of [125I]SDF-1alpha from CXCR4 in human CEM-CCRF cells by liquid scintillation counting; type: cell-based
T1 sequence (P61073 whole entry): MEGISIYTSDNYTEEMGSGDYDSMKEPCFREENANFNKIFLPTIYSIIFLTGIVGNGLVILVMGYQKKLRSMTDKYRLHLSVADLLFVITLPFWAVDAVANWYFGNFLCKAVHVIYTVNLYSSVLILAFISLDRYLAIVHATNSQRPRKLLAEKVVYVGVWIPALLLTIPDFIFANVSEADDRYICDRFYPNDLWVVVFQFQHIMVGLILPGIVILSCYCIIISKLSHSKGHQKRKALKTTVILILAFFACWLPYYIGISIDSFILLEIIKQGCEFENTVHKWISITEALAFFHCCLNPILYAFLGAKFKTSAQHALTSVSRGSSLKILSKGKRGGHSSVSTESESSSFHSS

[10] = Half life in dog at 5 umol/kg, iv; type: ADME, organism-based, Canis lupus familiaris; conditions: in vivo
[11] = Volume of distribution at steady state in dog at 5 umol/kg, iv; type: ADME, organism-based, Canis lupus familiaris; conditions: in vivo, read-out: Vdss
[12] = Oral bioavailability in rat at 100 umol/kg, […]; type: ADME, organism-based; conditions: in vivo
[13] = Volume of distribution at steady state in rat at 10 umol/kg, iv; type: ADME, organism-based; conditions: in vivo, read-out: Vdss
[14] = Oral bioavailability in dog at 12.5 umol/kg; type: ADME, organism-based, Canis lupus familiaris; conditions: in vivo
[15] = Clearance in dog at 5 umol/kg, iv; type: ADME, organism-based, Canis lupus familiaris; conditions: in vivo
[16] = Half life in rat at 10 umol/kg, iv; type: ADME, organism-based; conditions: in vivo
[17] = Clearance in rat at 10 umol/kg, iv; type: ADME, organism-based; conditions: in vivo
[18] = target: T1, C-X-C chemokine receptor type 4; test: Antagonist activity at CXCR4 in human CEM-CCRF cells assessed as inhibition of SDF-1-induced calcium signaling; type: functional, cell-based

SMILES	IC50 [1] [nM]	CC50 [2] [nM]	further results
CC(c1ccccn1)N(CCCCN)Cc1nc2ccccc2[nH]1 (stereo not given)	18	> 161000	–
CCC(c1ccccn1)N(CCCCN)Cc1nc2ccccc2[nH]1 (stereo not given)	874	> 162000	–
CC(C)C(c1ccccn1)N(CCCCN)Cc1nc2ccccc2[nH]1 (stereo not given)	16300	> 162000	–
NCCCCN(Cc1nc2ccccc2[nH]1)C(c1ccccc1)c1ccccn1 (stereo not given)	13300	> 148000	–
CC(C)(c1ccccn1)N(CCCCN)Cc1nc2ccccc2[nH]1	2500	> 159000	–
NCCCCN(Cc1ccccn1)Cc1nc2ccccc2[nH]1	41	151000	–
NCCCCN(Cc1nc2ccccc2[nH]1)Cc1ncccc1O	> 149000	> 149000	–
CC(C)c1cccnc1CN(CCCCN)Cc1nc2ccccc2[nH]1	34	145000	–
Cc1cccnc1C(C)N(CCCCN)Cc1nc2ccccc2[nH]1 (stereo not given)	505	> 146000	–
Cc1ccnc(C(C)N(CCCCN)Cc2nc3ccccc3[nH]2)c1 (stereo not given)	438	> 142000	–
Cc1cccc(C(C)N(CCCCN)Cc2nc3ccccc3[nH]2)n1 (stereo not given)	4100	> 167000	–
CC(c1cccc(N)n1)N(CCCCN)Cc1nc2ccccc2[nH]1 (stereo not given)	2290	> 149000	–
Cc1cnc(CN(CCCCN)[C@H]2CCCc3cccnc32)c(C)c1	7.7	–	IC50 [9]: 62.9 nM; half-life [10]: 39.6 h; Vd [11]: 8.7 L/kg; bioavailability [12]: 42%; Vd [13]: 28.5 L/kg; AUC(0-inf) [3]: 22.1 µM·h; bioavailability [14]: 51%; AUC(0-inf) [4]: 20.7 µM·h; clearance [15]: 3.3 mL/min/kg; half-life [16]: 10.5 h; Cmax [5]: 7160 nM; Cmax [6]: 2700 nM; fold change (FC) [7]: 2.8; clearance [17]: 31.7 mL/min/kg; IC50 [8]: 3.6 nM
NCCCCN(Cc1ccccn1)C1CCCc2cccnc21 (racemic)	15.3	165000	–
Cc1cccnc1CN(CCCCN)C1CCCc2cccnc21 (racemic)	23.3	32400	–
Cc1ccnc(CN(CCCCN)C2CCCc3cccnc32)c1 (racemic)	47.8	36900	–
Cc1ccc(CN(CCCCN)C2CCCc3cccnc32)nc1 (racemic)	5.3	35300	IC50 [18]: 35 nM
Cc1cc(C)nc(CN(CCCCN)C2CCCc3cccnc32)c1 (racemic)	17	149000	–
NCCCCN(Cc1cccc(N)n1)C1CCCc2cccnc21 (racemic)	30	158000	–
COCc1cccc(CN(CCCCN)C2CCCc3cccnc32)n1 (racemic)	553	> 154000	–
NCCCCN(Cc1ncccc1O)C1CCCc2cccnc21 (racemic)	113	149000	–
NCCCCN(Cc1ncccc1N)C1CCCc2cccnc21 (racemic)	19.7	169000	–
CC(C)c1cccnc1CN(CCCCN)C1CCCc2cccnc21 (racemic)	8.4	33800	–
CC(c1ccccn1)N(CCCCN)Cc1ncccc1N (racemic)	18.4	167000	IC50 [18]: 72 nM
CC(c1ccccn1)N(CCCCN)Cc1ncccc1C(F)(F)F (racemic)	39.1	> 155000	IC50 [18]: 111 nM
Cc1ccc(CN(CCCCN)C(C)c2ccccn2)nc1 (racemic)	48.1	158000	–
Cc1cccc(CN(CCCCN)C(C)c2ccccn2)n1 (racemic)	15	> 145000	IC50 [18]: 183 nM
NCCCCN(Cc1nc2ccccc2[nH]1)[C@H]1CCCc2cccnc21 [MAVORIXAFOR]	4.8	–	–

Stronger by IC50 [1], values ahead:

IC50 [1] [nM]	SMILES	CC50 [2] [nM]	further results
3.8	Cc1ccc(C(C)N(CCCCN)Cc2nc3ccccc3[nH]2)nc1 (stereo not given)	> 146000	–
2.9	Cc1cccc(CN(CCCCN)C2CCCc3cccnc32)n1 (racemic)	299000	–
2.4	Cc1cccc(CN(CCCCN)[C@H]2CCCc3cccnc32)n1	–	AUC(0-inf) [3]: 7.75 µM·h; AUC(0-inf) [4]: 8.75 µM·h; Cmax [5]: 2060 nM; Cmax [6]: 1460 nM; fold change (FC) [7]: 0.6; IC50 [8]: 15.8 nM
2.1	NCCCCN(Cc1ncccc1CO)C1CCCc2cccnc21 (racemic)	155000	–
1.8	Cc1cnc(CN(CCCCN)C(C)c2ccccn2)c(C)c1 (racemic)	163000	IC50 [18]: 20 nM
1.6	NCCCCN(Cc1ncccc1N)[C@H]1CCCc2cccnc21	–	AUC(0-inf) [3]: 21.2 µM·h; AUC(0-inf) [4]: 8.73 µM·h; Cmax [5]: 7740 nM; Cmax [6]: 1660 nM; fold change (FC) [7]: 4.3; IC50 [8]: 2.1 nM
1.6	CC(c1ccccn1)N(CCCCN)Cc1ncccc1C(C)(C)C (racemic)	158000	–
1.4	C[C@@H](c1ccccn1)N(CCCCN)Cc1nc2ccccc2[nH]1	–	AUC(0-inf) [3]: 1.7 µM·h; AUC(0-inf) [4]: 0.33 µM·h; Cmax [5]: 1330 nM; Cmax [6]: 180 nM; fold change (FC) [7]: 5.4; IC50 [8]: 2 nM
1.1	Cc1cccnc1CN(CCCCN)C(C)c1ccccn1 (stereo not given)	45400	–
1.1	Cc1cccnc1CN(CCCCN)[C@@H](C)c1ccccn1	–	AUC(0-inf) [3]: 7.49 µM·h; AUC(0-inf) [4]: 11.2 µM·h; Cmax [6]: 1580 nM; fold change (FC) [7]: 14.2; IC50 [8]: 2.1 nM
0.63	Cc1cnc(CN(CCCCN)C2CCCc3cccnc32)c(C)c1 (racemic)	32600	IC50 [18]: 19 nM
0.4	NCCCCN(Cc1ncccc1Cl)C1CCCc2cccnc21 (stereo not given)	191000	–
0.3	Cc1ccnc(C(C)N(CCCCN)Cc2ncccc2C)c1 (racemic)	138000	–

Reference: ChEMBL document CHEMBL1681661, “Design of novel CXCR4 antagonists that are potent inhibitors of T-tropic (X4) HIV-1 replication” (Bioorg Med Chem Lett, 2011)
